According to patent US10017520B2, “Myc modulators and uses thereof” (Massachusetts Institute of Technology, priority 2014, dated 2018):

Test system: c-Myc
Assay: c-Myc reporter gene assay (Qiagen) in HEK293T cells
Format: cell-based
Details: Homo sapiens, HEK-293T, 16 h, treatment 16 hours, Firefly/Renilla ratio
Method: Compound 1's activity against Myc was measured as a Firefly/Renilla ratio, using the Myc reporter assay (Qiagen) in HEK293T cells after treatment with compound 1 for 16 hours. Results are expressed as a mean+/−SD (n=3). SD: standard deviation.
Select compounds described herein that were SMM assay positives were evaluated in several versions of a c-Myc reporter gene assay, including a commercial assay from Qiagen. The compounds' activities against c-Myc were measured as a Firefly/Renilla ratio, using the Myc reporter assay (Qiagen) in HEK293T cells after treatment with the compounds for 16 hours.

| SMILES | IC50 [µM] |
| --- | --- |
| CC(C)(C)OC(=O)CN1C(=O)S/C(=C\c2ccc(Sc3nc4ccccc4[nH]3)o2)C1=O [Compound 14, (Z)-tert-butyl 2-(5-((5-((1H-benzo[d]imidazol-2-yl)thio)furan-2-yl)methylene)-2,4-dioxothiazolidin-3-yl)acetate] | 1.96 |
| COC(=O)CN1C(=O)S/C(=C\c2ccc(Sc3nc4ccccc4[nH]3)o2)C1=O [Compound 15, (Z)-methyl 2-(5-((5-((1H-benzo[d]imidazol-2-yl)thio)furan-2-yl)methylene)-2,4-dioxothiazolidin-3-yl)acetate] | 3.26 |
| CC(C)N1C(=O)S/C(=C\c2ccc(Sc3ncc[nH]3)o2)C1=O [Compound 16, (Z)-5-((5-((1H-imidazol-2-yl)thio)furan-2-yl)methylene)-3-isopropylthiazolidine-2,4-dione] | 20.8 |
| CC(C)N1C(=O)S/C(=C\c2ccc(Sc3ccccn3)o2)C1=O [Compound 17, (Z)-3-isopropyl-5-((5-(pyridin-2-ylthio)furan-2-yl)methylene)thiazolidine-2,4-dione] | 7.67 |
| CC(C)N1C(=O)S/C(=C\c2ccc(Sc3nc4ccccc4n3C)o2)C1=O [Compound 18, (Z)-3-isopropyl-5-((5-((1-methyl-1H-benzo[d]imidazol-2-yl)thio)furan-2-yl)methylene)thiazolidine-2,4-dione] | 1.67 |
| NCCCN1C(=O)S/C(=C\c2ccc(Sc3nc4ccccc4[nH]3)o2)C1=O [Compound 19, (Z)-5-((5-((1H-benzo[d]imidazol-2-yl)thio)furan-2-yl)methylene)-3-(3-aminopropyl)thiazolidine-2,4-dione 2,2,2-trifluoroacetate] | 7.3 |
| O=C(NCCCN1C(=O)S/C(=C\c2ccc(Sc3nc4ccccc4[nH]3)o2)C1=O)Nc1ccccc1 [Compound 20, (Z)-1-(3-(5-((5-((1H-benzo[d]imidazol-2-yl)thio)furan-2-yl)methylene)-2,4-dioxothiazolidin-3-yl)propyl)-3-phenylurea] | 1.22 |
| CCNC(=O)NCCCN1C(=O)S/C(=C\c2ccc(Sc3nc4ccccc4[nH]3)o2)C1=O [Compound 21] | 6.77 |
| CCC(C)N1C(=O)S/C(=C\c2ccc(Sc3nc4ccccc4[nH]3)o2)C1=O (stereo not shown) [Compound 31] | 2.22 |
| COC(=O)C(C)N1C(=O)S/C(=C\c2ccc(Sc3nc4ccccc4[nH]3)o2)C1=O (stereo not shown) [Compound 32] | 6.24 |
| O=C(CN1C(=O)S/C(=C\c2ccc(Sc3nc4ccccc4[nH]3)o2)C1=O)N1CCN(c2ccccc2)CC1 [Compound 34] | 7.01 |
| O=C1S/C(=C\c2ccc(Sc3nc4ccccc4[nH]3)o2)C(=O)N1c1ccccc1 [Compound 35] | 11.9 |
| CC(/C=C1\SC(=O)N(C(C)C)C1=O)=C\c1ccccc1 [Compound 37] | > 100 |
| COC(=O)C(C)N1C(=O)S/C(=C\C=C\c2ccco2)C1=O (stereo not shown) [Compound 38] | > 100 |
| Cc1ccc(Sc2ccc(/C=C3\SC(=O)N(C(C)C)C3=O)o2)cc1 [Compound 39] | > 100 |
| O=C(Nc1ccccc1)c1ccc(Sc2nc3ccccc3[nH]2)o1 [Compound 42, 5-((1H-benzo[d]imidazol-2-yl)thio)-N-phenylfuran-2-carboxamide] | 3.32 |
| CC(C)NC(=O)c1ccc(Sc2nc3ccccc3[nH]2)o1 [Compound 43, 5-((1H-benzo[d]imidazol-2-yl)thio)-N-isopropylfuran-2-carboxamide] | 7.9 |
| c1ccc(NCc2ccc(Sc3nc4ccccc4[nH]3)o2)cc1 [Compound 45, N-((5-((1H-benzo[d]imidazol-2-yl)thio)furan-2-yl)methyl)aniline] | 4.66 |
| CC(C)NCc1ccc(Sc2nc3ccccc3[nH]2)o1 [Compound 46] | 57.5 |
| c1ccc2[nH]c(Sc3ccc(CN4CCOCC4)o3)nc2c1 [Compound 47, 4-((5-((1H-benzo[d]imidazol-2-yl)thio)furan-2-yl)methyl)morpholine] | 32.9 |
| CCN1CCN(Cc2ccc(Sc3nc4ccccc4[nH]3)o2)CC1 [Compound 48, 2-((5-((4-ethylpiperazin-1-yl)methyl)furan-2-yl)thio)-1H-benzo[d]imidazole] | 10.2 |
| CN(C)Cc1ccc(Sc2nc3ccccc3[nH]2)o1 [Compound 49, 1-(5-((1H-benzo[d]imidazol-2-yl)thio)furan-2-yl)-N,N-dimethylmethanamine] | 59.4 |
| COC(=O)CNCc1ccc(Sc2nc3ccccc3[nH]2)o1 [Compound 50, Methyl 2-(((5-((1H-benzo[d]imidazol-2-yl)thio)furan-2-yl)methyl)amino)acetate] | 75.9 |
| CC(C)N1C(=O)S/C(=C\c2ccc(Sc3nc4ccc(OC(F)(F)F)cc4[nH]3)o2)C1=O [Compound 56, (Z)-3-isopropyl-5-((5-((6-(trifluoromethoxy)-1H-benzo[d]imidazol-2-yl)thio)furan-2-yl)methylene)thiazolidine-2,4-dione] | 0.44 |
| CC(C)N1C(=O)S/C(=C\c2ccc(Sc3nc4ccc([N+](=O)[O-])cc4[nH]3)o2)C1=O [Compound 57, (Z)-3-isopropyl-5-((5-((6-nitro-1H-benzo[d]imidazol-2-yl)thio)furan-2-yl)methylene)thiazolidine-2,4-dione] | 0.36 |
| CC(=O)c1ccc2nc(Sc3ccc(/C=C4\SC(=O)N(C(C)C)C4=O)o3)[nH]c2c1 [Compound 58, (Z)-5-((5-((6-acetyl-H-benzo[d]imidazol-2-yl)thio)furan-2-yl)methylene)-3-isopropylthiazolidine-2,4-dione] | 0.26 |

Same assay, conditions: Homo sapiens, HEK-293T, treatment 16 hours, Firefly/Renilla ratio

| SMILES | IC50 [µM] |
| --- | --- |
| CC(C)N1C(=O)S/C(=C\c2ccc(Sc3nc4ccccc4[nH]3)s2)C1=O [Compound 11, (Z)-5-((5-((1H-benzo[d]imidazol-2-yl)thio)thiophen-2-yl)methylene)-3-isopropylthiazolidine-2,4-dione] | 1.62 |
| CN1C(=O)C(=Cc2ccc(Sc3nc4ccccc4[nH]3)o2)C(=O)N(C)C1=O [Compound 53, 5-((5-((1H-benzo[d]imidazol-2-yl)thio)furan-2-yl)methylene)-1,3-dimethylpyrimidine-2,4,6(1H,3H,5H)-trione] | 26.8 |

Same assay, conditions: treatment 16 hours, Firefly/Renilla ratio

| SMILES | c-Myc reporter assay IC50 | IC50 [µM] |
| --- | --- | --- |
| O=C(O)CN1C(=O)S/C(=C\c2ccc(Sc3nc4ccccc4[nH]3)o2)C1=O [Compound 13, (Z)-2-(5-((5-((1H-benzo[d]imidazol-2-yl)thio)furan-2-yl)methylene)-2,4-dioxothiazolidin-3-yl)acetic acid] | inactive |  |
| NCCCN1C(=O)S/C(=C\c2ccc(Sc3nc4ccccc4[nH]3)o2)C1=O [Compound 19, (Z)-5-((5-((1H-benzo[d]imidazol-2-yl)thio)furan-2-yl)methylene)-3-(3-aminopropyl)thiazolidine-2,4-dione 2,2,2-trifluoroacetate] |  | 6.52 |
| O=C(O)c1ccc(Sc2nc3ccccc3[nH]2)o1 [Compound 41, 5-((1H-benzo[d]imidazol-2-yl)thio)furan-2-carboxylic acid] | non active |  |
| O=C(c1ccc(Sc2nc3ccccc3[nH]2)o1)N1CCOCC1 [Compound 44, (5-((1H-benzo[d]imidazol-2-yl)thio)furan-2-yl)(morpholino)methanone] | non active |  |
| COC(=O)c1ccc(Sc2nc3ccccc3[nH]2)o1 [Compound 51, Methyl 5-((1H-benzo[d]imidazol-2-yl)thio)furan-2-carboxylate] | non active |  |
| O=C1NC(=O)C(=Cc2ccc(Sc3nc4ccccc4[nH]3)o2)C(=O)N1 [Compound 54, 5-((5-((1H-benzo[d]imidazol-2-yl)thio)furan-2-yl)methylene)pyrimidine-2,4,6(1H,3H,5H)-trione] | non active |  |
